This is an account of results in ChEMBL document CHEMBL1126449, “Synthesis and anti-acetylcholinesterase activity of 1-benzyl-4-[(5,6-dimethoxy-1-indanon-2-yl)methyl]piperidine hydrochloride (E2020) and related compounds” (Bioorg Med Chem Lett, 1992).

This experiment concerns the target T1, Acetylcholinesterase (Mus musculus, UniProt P21836).
T1 sequence (P21836 whole entry): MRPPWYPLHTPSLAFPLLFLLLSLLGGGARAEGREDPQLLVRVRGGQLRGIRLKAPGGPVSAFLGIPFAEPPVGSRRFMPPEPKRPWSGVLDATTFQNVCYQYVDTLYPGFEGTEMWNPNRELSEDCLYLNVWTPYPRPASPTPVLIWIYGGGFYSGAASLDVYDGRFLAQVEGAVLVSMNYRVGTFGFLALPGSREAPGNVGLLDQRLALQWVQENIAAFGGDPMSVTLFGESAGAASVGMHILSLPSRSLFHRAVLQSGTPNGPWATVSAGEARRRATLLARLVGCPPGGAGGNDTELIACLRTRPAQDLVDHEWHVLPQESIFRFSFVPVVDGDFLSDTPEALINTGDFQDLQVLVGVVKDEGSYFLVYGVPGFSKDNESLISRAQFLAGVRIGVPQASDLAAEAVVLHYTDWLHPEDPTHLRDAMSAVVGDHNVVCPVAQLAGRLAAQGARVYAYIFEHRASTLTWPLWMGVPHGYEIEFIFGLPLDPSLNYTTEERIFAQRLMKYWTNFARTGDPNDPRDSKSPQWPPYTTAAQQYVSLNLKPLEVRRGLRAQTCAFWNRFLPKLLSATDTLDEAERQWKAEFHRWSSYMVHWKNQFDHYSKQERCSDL
Briefly: biochemical.
Description: Inhibition of Acetylcholinesterase activity in mouse brain homogenate
As for `COc1cc2c(cc1OC)CC(CC1CCN(Cc3ccccc3)CC1)=C2`, 4400 nM corresponded to half-maximal inhibition (IC50).
In the case of `COc1cc2c(cc1OC)C(=O)/C(=C/C1CCN(Cc3ccccc3)CC1)C2`, the IC50 – broadly, the concentration that inhibits the measured activity by half – is 13 nM.
In the case of `COc1cc2c(cc1OC)C(=O)C(CC1CCN(CC3CCCCC3)CC1)C2` (configuration not stated), the IC50 stood at 8.9 nM.
As to `COc1cc2c(cc1OC)C(=O)C(CC1CCN(CCc3ccccc3)CC1)C2` (configuration not stated), the IC50 amounted to 180 nM.
`COc1cc2c(cc1OC)C(=O)C(CC1CCN(Cc3ccccc3C)CC1)C2` (configuration not stated) showed an IC50 of 10 nM.
As for `COc1cc2c(cc1OC)C(=O)C(CC1CCN(Cc3cccc([N+](=O)[O-])c3)CC1)C2` (configuration not stated), the IC50 was 4 nM.
The figure for `COc1cc2c(cc1OC)C(=O)C(CC1CCN(Cc3cccc(C)c3)CC1)C2` (configuration not stated) is 2.7 nM; for `COc1cc2c(cc1OC)C(=O)C(CC1CCN(Cc3ccc([N+](=O)[O-])cc3)CC1)C2` (configuration not stated) it is 100 nM; for `COc1cc2c(cc1OC)C(=O)C(CN1CCN(Cc3ccccc3)CC1)C2` (configuration not stated) it is 94 nM.
The figure for `COc1cc2c(cc1OC)C(O)C(CC1CCN(Cc3ccccc3)CC1)C2` (configuration not stated) is 300 nM.
With `COc1cc2c(cc1OC)C(=O)C(CC1CCN(C(=O)c3ccccc3)CC1)C2` (configuration not stated) the figure was > 10000 nM.
`COc1cc2c(cc1OC)C(=O)/C(=C/CC1CCN(Cc3ccccc3)CC1)C2`: the IC50 was determined as 150 nM.
